The results in this text go back to patent US20240226094A1, “ALPHA PROTEIN KINASE 1 INHIBITORS FOR USE IN TREATING KAWASAKI DISEASE” (Shanghai Yao Yuan Biotechnology Co., Ltd., priority 2021, published 2024).

Assay [1] concerns the target ALPK1 (Homo sapiens (Human), UniProt Q96QP1). The assay is described as follows: ALPK1 in vitro kinase assay (HTRF of TIFA phosphorylation). The format is biochemical. Here is the method: ALPK1 kinase activity was measured in an in vitro assay using ADP-Heptose as the ALPK1 ligand and activator of its kinase activity and TIFA protein as the ALPK1 phosphorylation substrate. Since phosphorylated TIFA proteins oligomerize, Homogeneous Time-Resolved Fluorescence (HTRF) was used to measure protein:protein interaction between HA-tagged TIFA proteins as an indicator of TIFA phosphorylation.
In brief, dose-response studies were performed with HEK293 cells cultured in Dulbecco's Modified Eagle Medium (DMEM) supplemented 10% fetal bovine serum (FBS, Hyclone™) containing antibiotics (pen/strep, G418) in 384-well assay plates. Each well contained 0.1 mg TIFA, ALPK1 (2 nM final concentration in reaction mixture) and kinase buffer (100 mM of HEPES pH 7.4, 4 mM DTT, 40 mM MgCl2, 20 mM of β-Glycerol phosphate disodium salt, 0.4 mM of Na3VO4, 0.16 mg/mL). Titrations of the test compounds were prepared in dimethylsulphoxide (DMSO). The reaction was initiated by addition of ATP and ADP-Heptose.
For HTRF, samples were incubated with a Tb cryptate-labeled anti-HA antibody for capturing HA-tagged proteins according to the manufacturer's instructions (PerkinElmer™, CisBio™) and the fluorescence signal was quantified (Tecan Infinite F NANO+). HTRF signals were calculated as the HTRF ratio (ratio of fluorescence measured at 665 nm and 620 nm)×104 (thereby using the signal at 620 nm as an internal standard).
IC50 values were determined using 3- or 4-parameter logistic equation using GraphPad Prism version 6.00. The reference compound, A027, was used as a positive control for each plate.

For assay [2], the system named is ALPK1-dependent NFκB reporter gene activation. The assay is described as follows: NFκB gene reporter alkaline phosphatase assay in HEK293 G9 cells. Particulars: read-out: NFkB assay IC50. The format is cell-based, human. Here is the method:
An alkaline phosphatase reporter assay system was used to measure inhibition of ALPK1-dependent NFκB reporter gene activation. Briefly, HEK293 cells stably expressing an NF-kB reporter (referred to herein as “G9 cells”) were maintained in DMEM as described above. For the assay, cells were seeded into 96-well plates at a density of 10,000 cells/well in Freestyle-M 293 Expression Medium (ThermoFisher), and allowed to attach overnight. […] NFkB gene activation was detected using the chromogenic substrate, para-nitrophenyl phosphate (pNPP) according to the manufacturer's protocols (pNPP Phosphatase Assay, Beyotine Biotechnology).

Assay [3] relates to ALPK1-dependent innate immunity gene expression in PBMC. Description: Inhibition of ALPK1 in PBMC cells (innate immunity gene mRNA, RT-PCR). The format is in vivo, Sprague-Dawley (SD) rats. Particulars: SD rats, 10 mpk oral, 2 h before ip ALPK1 agonist, blood 3 h later, compared with vehicle group. Here is the method:
We examined whether ALPK1 inhibitors can suppress ALPK1-dependent activation of a set of such genes in rats. […] PBMCs were collected and gene expression analyzed, as described in more detail below.
After 3 hours administration of the ALPK1 agonist, the blood was collected from heart, and PBMC were extracted from each group.

For assay [4], the system named is ALPK1-TIFA-IL1β pathway in THP-1-derived macrophage cells. Description: PMA-differentiated THP-1 cell based assay (IL1β mRNA after ALPK1 agonist). Particulars: Homo sapiens; PMA-differentiated THP-1 cells, 2 h pretreatment, 4 h ALPK1 agonist; read-out: IC50 of IL1β mRNA induced by ALPK1 activation. How it is done:
Peripheral blood mononuclear cells (PBMCs) from Kawasaki patients show activation of ALPK1-TIFA-IL1β pathway. […] THP-1 cells were cultured in RPMI 1640 containing 10% heat inactivated FBS, penicillin (100 units/ml) and streptomycin ([…]), and maintained in a humidified incubator with 95% atmospheric air and 5% CO2. Prior to the experiment, THP-1 cells were seeded into 24-well flat-bottom plate at a cell density of […]. Phorbol myristate acetate (PMA; 50 ng/mil) was used to treat THP-i cells for 48 h, and then THP-1-derived macrophages were obtained. […] Total RNA was extracted using the TRIzol method and reverse-transcribed. The mRNA expression levels IL1β were detected by SYBR green gene expression assays. Expression levels of mRNA were normalized to GAPDH. Relative expression was calculated by comparing to vehicle control and the values were plotted as fold induction. All activity results were expressed as the mean of triplicate determinations.

Assay [5] deals with ALPK1-dependent innate immunity gene expression. The assay is described as follows: Inhibition of ALPK1 in coronary artery, aorta and heart muscle (innate immunity gene mRNA, RT-PCR). Particulars: SD rats, 40 mpk oral, 2 h before ip ALPK1 agonist, tissue 3 h later, compared with vehicle group. The format is in vivo, Sprague-Dawley (SD) rats.
The mark [6] stands for this setting: ADP-Heptose activated ALPK1, TIFA substrate, HTRF.

Counter-ions that a name gives are not always drawn. Like-named read-outs stand apart in the source and are kept apart here.

Chain of ALPK1 (Q96QP1 whole entry): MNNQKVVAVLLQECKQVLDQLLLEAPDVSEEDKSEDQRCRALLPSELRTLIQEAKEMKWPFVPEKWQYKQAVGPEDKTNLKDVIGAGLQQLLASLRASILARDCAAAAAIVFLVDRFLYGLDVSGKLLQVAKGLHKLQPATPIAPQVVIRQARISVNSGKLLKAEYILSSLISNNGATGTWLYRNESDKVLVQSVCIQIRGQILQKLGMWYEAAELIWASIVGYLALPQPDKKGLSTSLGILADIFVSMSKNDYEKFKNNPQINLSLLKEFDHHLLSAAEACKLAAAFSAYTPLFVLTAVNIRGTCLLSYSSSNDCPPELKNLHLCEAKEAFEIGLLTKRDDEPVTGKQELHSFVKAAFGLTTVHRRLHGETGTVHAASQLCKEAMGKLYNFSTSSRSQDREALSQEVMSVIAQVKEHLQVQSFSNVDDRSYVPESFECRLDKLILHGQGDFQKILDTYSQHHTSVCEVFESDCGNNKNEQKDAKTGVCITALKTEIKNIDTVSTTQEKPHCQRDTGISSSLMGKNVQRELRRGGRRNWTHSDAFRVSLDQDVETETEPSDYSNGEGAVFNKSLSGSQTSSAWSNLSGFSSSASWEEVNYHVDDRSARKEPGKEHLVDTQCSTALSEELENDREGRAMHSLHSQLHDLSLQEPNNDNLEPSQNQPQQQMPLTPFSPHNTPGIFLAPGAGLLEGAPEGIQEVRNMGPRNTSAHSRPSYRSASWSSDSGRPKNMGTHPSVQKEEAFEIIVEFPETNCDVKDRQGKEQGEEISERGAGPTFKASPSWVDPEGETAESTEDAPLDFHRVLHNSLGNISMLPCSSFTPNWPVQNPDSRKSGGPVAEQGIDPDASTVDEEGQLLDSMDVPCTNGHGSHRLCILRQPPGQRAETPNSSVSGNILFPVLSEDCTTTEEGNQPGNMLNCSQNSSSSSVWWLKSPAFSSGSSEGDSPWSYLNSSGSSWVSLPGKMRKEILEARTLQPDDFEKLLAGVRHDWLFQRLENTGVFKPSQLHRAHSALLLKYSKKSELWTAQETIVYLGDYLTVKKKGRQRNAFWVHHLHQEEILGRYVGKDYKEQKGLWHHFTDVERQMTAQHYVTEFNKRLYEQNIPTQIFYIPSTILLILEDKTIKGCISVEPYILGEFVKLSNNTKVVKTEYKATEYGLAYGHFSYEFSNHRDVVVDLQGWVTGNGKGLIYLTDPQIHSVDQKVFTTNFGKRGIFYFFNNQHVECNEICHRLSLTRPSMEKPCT

In assay [1], `C#C[C@@](C)(c1ccc(F)cc1)c1csc(NC(=O)NCCO)n1` (stereo in doubt) [A283, 1-(4-(2-(4-fluorophenyl)but-3-yn-2-yl)thiazol-2-yl)-3-(2-hydroxyethyl)urea] registered an IC50 of 550 nM.
On to `C#C[C@](C)(c1ccc(Cl)cc1)c1csc(NC(=O)c2ccc(N3CCNCC3)cc2)n1` (stereo in doubt) [B092, N-(4-(2-(4-chlorophenyl)but-3-yn-2-yl)thiazol-2-yl)-4-(piperazin-1-yl)benzamide], for which the IC50 in assay [1] (setting [6]) was 219 nM.
Same read-out and setting: under `C#C[C@@](C)(c1ccc(Cl)cc1)c1csc(NC(=O)c2ccc(N3CCNCC3)cc2)n1` (stereo in doubt) [B093, N-(4-(2-(4-chlorophenyl)but-3-yn-2-yl)thiazol-2-yl)-4-(piperazin-1-yl)benzamide] stands 43 nM.
Take `CC(C)(c1ccc(Br)cc1)c1csc(NC(=O)NCc2cccc(N3CCNCC3)c2)n1` [A005, 1-(4-(2-(4-bromophenyl)propan-2-yl)thiazol-2-yl)-3-(3-(piperazin-1-yl)benzyl)urea]: the concentration for half-maximal inhibition (IC50) in assay [1] amounted to 97 nM; in assay [2] (Homo sapiens, HEK293), 3150 nM.
The corresponding values for `COc1ccc(C(C)(C)c2csc(NC(=O)NCc3cnccn3)n2)cc1` [A007, 1-(4-(2-(4-methoxyphenyl)propan-2-yl)thiazol-2-yl)-3-(pyrazin-2-ylmethyl)urea] are 91 nM and 5580 nM.
In assay [1], `COc1ccc(C(C)(C)c2csc(NC(=O)NCCCCNc3ccccc3)n2)cc1` [A147, 1-(4-(2-(4-methoxyphenyl)propan-2-yl)thiazol-2-yl)-3-(4-(phenylamino)butyl)urea] registered a half-inhibitory concentration (IC50) of 235 nM.
On to `COc1ccc(C(C)(C)c2csc(NC(=O)NCc3cc(F)c(C4CCNCC4)c(F)c3)n2)cc1` [A151, 1-(3,5-difluoro-4-(piperidin-4-yl)benzyl)-3-(4-(2-(4-methoxyphenyl)propan-2-yl)thiazol-2-yl)urea hydrochloride], for which the IC50 in assay [2] (Homo sapiens, HEK293) was 950 nM.
In the case of `C#C[C@@](C)(c1ccc(Cl)cc1)c1csc(NC(=O)NCCO)n1` [A176, (S)-1-(4-(2-(4-chlorophenyl)but-3-yn-2-yl)thiazol-2-yl)-3-(2-hydroxyethyl)urea], the “mRNA expressions of PBMC CCL-2, CCL-7, CXCL-1, CXCL-10, CXCL-11 and IL-1β” value in assay [3] is “significantly decreased”. The IC50 in assay [4] worked out at 97 nM.
As to `CC(C)(c1ccc(I)cc1)c1csc(NC(=O)NCc2cnc(N3CCNCC3)nc2)n1` [A178, 1-(4-(2-(4-iodophenyl)propan-2-yl)thiazol-2-yl)-3-((2-(piperazin-1-yl)pyrimidin-5-yl)methyl)urea], in assay [1], the IC50 came out at 42 nM.
As to `COc1ccc(C(C)(C)c2csc(NC(=O)NCc3ccc(N4CCC(N)C4)nc3)n2)cc1` (stereo not drawn) [A199, 1-((6-(3-aminopyrrolidin-1-yl)pyridin-3-yl)methyl)-3-(4-(2-(4-methoxyphenyl)propan-2-yl)thiazol-2-yl)urea], the IC50 in assay [2] (Homo sapiens, HEK293) came out at 460 nM.
On the same count and under the same terms, under `COc1ccc(C(C)(C)c2csc(NC(=O)NCc3cc(F)c(N4CCNCC4)cc3F)n2)cc1` [A231, 1-(2,5-difluoro-4-(piperazin-1-yl)benzyl)-3-(4-(2-(4-methoxyphenyl)propan-2-yl)thiazol-2-yl)urea hydrochloride] stands 3360 nM; under `COc1ccc(C(C)(C)c2csc(NC(=O)N3CC(c4ccc(N5CCNCC5)cc4)C3)n2)cc1` [A233, N-(4-(2-(4-methoxyphenyl)propan-2-yl)thiazol-2-yl)-3-(4-(piperazin-1-yl)phenyl)azetidine-1-carboxamide], 330 nM.
In the case of `C#CC(C)(c1ccc(OC)cc1)c1csc(NC(=O)NC(C)c2ccc(N3CCNCC3)cc2)n1` (stereo not drawn) [A234, 1-(4-(2-(4-methoxyphenyl)but-3-yn-2-yl)thiazol-2-yl)-3-(1-(4-(piperazin-1-yl)phenyl)ethyl)urea], the midpoint of inhibition in assay [1], the IC50, lay at 36 nM.
Same read-out and setting: under `COc1ccc(C(C)(CO)c2csc(NC(=O)NC(C)c3ccc(N4CCNCC4)cc3)n2)cc1` (stereo not drawn) [A235, 1-(4-(1-hydroxy-2-(4-methoxyphenyl)propan-2-yl)thiazol-2-yl)-3-(1-(4-(piperazin-1-yl)phenyl)ethyl)urea] stands 61 nM; under `C#CC(C)(c1ccc(Br)cc1)c1csc(NC(=O)NCCN2CCNCC2)n1` (stereo not drawn) [A239, 1-(4-(2-(4-bromophenyl)but-3-yn-2-yl)thiazol-2-yl)-3-(2-(piperazin-1-yl)ethyl)urea], 20 nM.
`C#C[C@](C)(c1ccc(OC)cc1)c1csc(NC(=O)N2CC(CO)C2)n1` [A255, (R)-3-(hydroxymethyl)-N-(4-(2-(4-methoxyphenyl)but-3-yn-2-yl)thiazol-2-yl)azetidine-1-carboxamide] displayed a half-inhibitory concentration (IC50) in assay [1] of 109 nM.
In the case of `C#C[C@@](C)(c1ccc(OC)cc1)c1csc(NC(=O)N2CC(CO)C2)n1` [A256, (S)-3-(hydroxymethyl)-N-(4-(2-(4-methoxyphenyl)but-3-yn-2-yl)thiazol-2-yl)azetidine-1-carboxamide], the midpoint of inhibition in assay [1], the IC50, lay at 43 nM.
On the same count and under the same terms, next, `C#C[C@](C)(c1ccc(Cl)cc1)c1csc(NC(=O)N2CC(CO)C2)n1` [A257, (R)-N-(4-(2-(4-chlorophenyl)but-3-yn-2-yl)thiazol-2-yl)-3-(hydroxymethyl)azetidine-1-carboxamide]: 246 nM; `C#C[C@@](C)(c1ccc(Cl)cc1)c1csc(NC(=O)N2CC(CO)C2)n1` [A258, (S)-N-(4-(2-(4-chlorophenyl)but-3-yn-2-yl)thiazol-2-yl)-3-(hydroxymethyl)azetidine-1-carboxamide]: 57 nM.
As for `C#CC(C)(c1ccc(Cl)cc1)c1csc(NC(=O)N2CCc3cc(N4CCNCC4)ccc3C2)n1` (stereo not drawn) [A281], the IC50 in assay [2] is 860 nM.
Regarding `C#CC(C)(c1ccc(Cl)cc1)c1csc(NC(=O)c2ccc(N3CCNCC3)cc2F)n1` (stereo not drawn) [B065, N-(4-(2-(4-chlorophenyl)but-3-yn-2-yl)thiazol-2-yl)-2-fluoro-4-(piperazin-1-yl)benzamide], the half-inhibitory concentration (IC50) in assay [1] (setting [6]) is 34 nM.
Same read-out and setting: next, `C#CC(C)(c1ccc(Cl)cc1)c1csc(NC(=O)c2ccc(N3CCNCC3)c(OC)c2)n1` (stereo not drawn) [B066, N-(4-(2-(4-chlorophenyl)but-3-yn-2-yl)thiazol-2-yl)-3-methoxy-4-(piperazin-1-yl)benzamide]: 29 nM.
Take `C#C[C@@](C)(c1ccc(Cl)cc1)c1csc(NC(=O)c2c(F)cc(N3CCNCC3)cc2F)n1` [C008, (S)-N-(4-(2-(4-chlorophenyl)but-3-yn-2-yl)thiazol-2-yl)-2,6-difluoro-4-(piperazin-1-yl)benzamide]: in assay [5], the “mRNA expression of aorta IL-6, CXCL-1, CXCL-10, CCL-2” value was “significantly decreased”; the “mRNA expression of cardiac muscle TNF-a, IL-1b, IL-6, CXCL-1, CXCL-10, CXCL-11, CCL-2 and CCL-5” value is on record as “significantly decreased”; the “mRNA expression of coronary artery TNF-α, CXCL-1, CCL-2 and CCL-7” value is listed as “significantly decreased”. For the same compound, the “mRNA expressions of PBMC CCL-7, CXCL-1, CXCL-10, CXCL-11, IL-1β, TNF-α and IL-6” value in assay [3] was “significantly decreased”. Besides, in assay [4], the half-maximal inhibitory concentration (IC50) was 15 nM.
